Patent publication US8399378B2, “Use of neonicotinoids in pest control” (Syngenta Crop Protection LLC, priority 1998, dated 2013)

Columns and labels:
Format in all cases: in vivo
Anthonomus grandis [1] = assay: Spray test on young cotton plants, action against Anthonomus grandis adults; details: spray 100, 50, 10, 5, 1 ppm, evaluation 3 to 10 days
Source text: (§1) Young transgenic cotton plants which express the δ-endotoxin CryIIIA are sprayed with an aqueous emulsion spray mixture comprising 100, 50, 10, 5, 1 ppm of imidacloprid respectively. After the spray coating has dried on, the cotton plants are populated with 10 adult Anthonomus grandis, 10 Spodoptera littoralis larvae or 10 Heliothis virescens larvae respectively and introduced into a plastic container. Evaluation takes place 3 to 10 days later.
as §1, with “thiamethoxam” for “imidacloprid”
as §1, with “Ti-435” for “imidacloprid”
as §1, with “CryIa(c)” for “CryIIIA”, “Ti-435” for “imidacloprid”
as §1, with “CryIa(c)” for “CryIIIA”, “thiamethoxam” for “imidacloprid”
as §1, with “CryIa(c)” for “CryIIIA”

Spodoptera spp. = assay: Maize plot spray test (KnockOut vs conventional maize), action against Spodoptera spp.; details: 6 days
Procedure: (§2) A plot (a) planted with maize cv. KnockOut® and an adjacent plot (b) of the same size which is planted with conventional maize, both showing natural infestation with Ostrinia nubilalis, Spodoptera spp. or Heliothis, are sprayed with an aqueous emulsion spray mixture comprising 200, 100, 50, 10, 5, 1 ppm of Ti-435. Immediately afterwards, plot (b) is treated with an emulsion spray mixture comprising 200, 100, 50, 10, 5, 1 ppm of the endotoxin expressed by KnockOut®. Evaluation takes place 6 days later. The percentage reduction in population (% action) is determined by comparing the number of dead pests on the plants of plot (a) with that on the plants of plot (b).
as §2, with “thiamethoxam.” for “Ti-435.”
as §2, with “imidacloprid.” for “Ti-435.”

Nephotettix cincticeps = assay: Rice plant spray test, action against Nephotettix cincticeps; details: 20° C, 21 days; for control (percentage reduction in population, % action): spray 400 ppm, 2nd and 3rd stages; for control level: plot (b) conventional rice plants, 400 ppm compound
Procedure: (§3) Rice plants on a plot (a) expressing the δ-endotoxin CryIA(b) and conventional rice plants on a plot (b) are sprayed with a spray mixture comprising 400 ppm thiamethoxam. Immediately afterwards, plot (b) is treated with an emulsion spray mixture comprising 400 ppm of the δ-endotoxin CryIA(b). After the spray coating has dried on, the plants are infected with Nephotettix cincticeps of the 2nd and 3rd stages. The seedlings of plot (a) and (b) are then incubated at 20° C. The test is evaluated after 21 days.
The percentage reduction in population (% action) is determined by comparing the number of dead pests on the plants of plot (a) with that on the plants of plot (b).
as §3, with “CryIA(c)” for “CryIA(b)”, “CryIA(c).” for “CryIA(b).”

Anthonomus grandis [2] = assay: Spray test on young cotton plants, action against Anthonomus grandis adults; details: non-transgenic cotton treated with compound and conventional CryIIIA-toxin, each 100, 50, 10, 5, 1 ppm

CN1COCN(Cc2cnc(Cl)s2)/C1=N\[N+](=O)[O-] [thiamethoxam, 5-(2-Chlorthiazol-5-ylmethyl)-3-methyl-4-nitroimino-perhydro-1,3,5-oxadiazin]
control of the tested insects (percentage reduction in population or feeding damage, % action) (Anthonomus grandis [1]; transgenic cotton expressing δ-endotoxin CryIIIA, compared with non-transgenic plant): superior | control of the tested insects (percentage reduction in population or feeding damage, % action) (Anthonomus grandis [1]; transgenic cotton expressing δ-endotoxin CryIa(c)): superior | control (percentage reduction in population, % action) (Spodoptera spp.; plot (a) maize cv. KnockOut, spray 200, 100, 50, 10, 5, 1 ppm, natural infestation): Improved control | control level (Spodoptera spp.; plot (b) conventional maize, compound 200, 100, 50, 10, 5, 1 ppm, then same ppm of the endotoxin expressed by KnockOut): ≤ 60% | control (percentage reduction in population, % action) (Nephotettix cincticeps; plot (a) rice plants expressing δ-endotoxin CryIA(b)): Improved control | control (percentage reduction in population, % action) (Nephotettix cincticeps; plot (a) rice plants expressing δ-endotoxin CryIA(c)): Improved control | control level (Nephotettix cincticeps; then 400 ppm δ-endotoxin CryIA(b)): ≤ 60% | control level (Nephotettix cincticeps; then 400 ppm δ-endotoxin CryIA(c)): ≤ 60% | control of the tested insects (percentage reduction in population or feeding damage, % action) (Anthonomus grandis [2]; comparison arm for CryIIIA cotton): insufficient | control of the tested insects (percentage reduction in population or feeding damage, % action) (Anthonomus grandis [2]; comparison arm for CryIa(c) cotton): insufficient
